# From PMC4979471 (Cell Death Discovery, 2015)
# Like-named read-outs stand apart in the source and are kept apart here.
# Tests used:
# Assay in all cases: Kinase selectivity, P33-radiolabeled assay
# Type in all cases: biochemical
# Conditions in all cases: 10 μM ATP
# [1] = target: T1, EPHA8 (Homo sapiens, UniProt P29322)
# T1 construct: purchased Reaction Biology Corp
# T1 sequence (P29322 28-1005): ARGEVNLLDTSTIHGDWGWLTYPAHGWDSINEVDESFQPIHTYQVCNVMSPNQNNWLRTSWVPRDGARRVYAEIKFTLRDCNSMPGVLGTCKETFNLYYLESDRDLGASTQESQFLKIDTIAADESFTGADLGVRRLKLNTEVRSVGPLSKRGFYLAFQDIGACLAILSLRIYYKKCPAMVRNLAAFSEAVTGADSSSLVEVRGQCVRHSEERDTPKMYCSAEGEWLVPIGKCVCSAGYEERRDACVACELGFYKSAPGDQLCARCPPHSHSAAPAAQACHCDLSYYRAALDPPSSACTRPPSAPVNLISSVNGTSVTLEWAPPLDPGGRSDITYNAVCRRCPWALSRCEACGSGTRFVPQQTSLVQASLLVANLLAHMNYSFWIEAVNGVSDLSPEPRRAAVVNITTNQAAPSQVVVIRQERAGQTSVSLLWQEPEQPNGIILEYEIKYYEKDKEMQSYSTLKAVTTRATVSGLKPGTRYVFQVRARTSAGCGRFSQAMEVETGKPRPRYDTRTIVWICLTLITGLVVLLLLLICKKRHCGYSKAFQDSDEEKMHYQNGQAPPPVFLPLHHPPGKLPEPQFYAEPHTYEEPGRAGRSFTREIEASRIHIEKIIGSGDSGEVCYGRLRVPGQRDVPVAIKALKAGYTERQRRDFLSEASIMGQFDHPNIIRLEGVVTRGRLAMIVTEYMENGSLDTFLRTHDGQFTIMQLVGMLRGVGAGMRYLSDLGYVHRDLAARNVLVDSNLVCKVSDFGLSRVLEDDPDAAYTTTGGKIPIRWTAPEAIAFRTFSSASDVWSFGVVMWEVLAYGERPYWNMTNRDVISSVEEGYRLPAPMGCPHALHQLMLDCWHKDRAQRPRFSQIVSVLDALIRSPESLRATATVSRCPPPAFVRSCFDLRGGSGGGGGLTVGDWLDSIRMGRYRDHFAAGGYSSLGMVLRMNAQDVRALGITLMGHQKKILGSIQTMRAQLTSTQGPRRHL
# In short: (§1)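 Percent residual kinase activity versus DMSO is reported. Conditions: compound at 10 μM, ATP at 10 μM, n = 2.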
# [2] = target: T2, FGR (Homo sapiens, UniProt P09769)
# T2 construct: purchased Reaction Biology Corp
# In short: as §1
# [3] = target: T3, MEKK3 (Homo sapiens, UniProt Q99759)
# T3 construct: purchased Reaction Biology Corp
# T3 sequence (Q99759 1-626): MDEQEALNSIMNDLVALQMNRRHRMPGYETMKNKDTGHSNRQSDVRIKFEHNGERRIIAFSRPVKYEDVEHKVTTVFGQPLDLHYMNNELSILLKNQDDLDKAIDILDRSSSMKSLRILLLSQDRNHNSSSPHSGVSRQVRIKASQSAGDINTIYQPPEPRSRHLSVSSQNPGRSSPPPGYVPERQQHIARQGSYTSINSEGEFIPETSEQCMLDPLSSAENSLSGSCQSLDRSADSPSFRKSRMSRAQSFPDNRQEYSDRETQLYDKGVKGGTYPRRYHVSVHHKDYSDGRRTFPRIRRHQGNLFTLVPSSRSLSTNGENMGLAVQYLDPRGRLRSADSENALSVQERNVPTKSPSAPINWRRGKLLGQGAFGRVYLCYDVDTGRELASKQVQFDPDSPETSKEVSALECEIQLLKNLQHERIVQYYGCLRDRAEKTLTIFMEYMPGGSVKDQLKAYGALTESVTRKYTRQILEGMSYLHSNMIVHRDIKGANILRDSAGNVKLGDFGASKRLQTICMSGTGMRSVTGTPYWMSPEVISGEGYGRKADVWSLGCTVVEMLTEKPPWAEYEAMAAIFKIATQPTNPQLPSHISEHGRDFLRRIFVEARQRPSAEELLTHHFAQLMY
# In short: as §1
# [4] = target: T4, MLK1/MAP3K9 (Homo sapiens, UniProt P80192)
# T4 construct: purchased Reaction Biology Corp
# In short: as §1
# [5] = target: T5, PHKg2 (Homo sapiens, UniProt P15735)
# T5 construct: purchased Reaction Biology Corp
# T5 sequence (P15735 1-406): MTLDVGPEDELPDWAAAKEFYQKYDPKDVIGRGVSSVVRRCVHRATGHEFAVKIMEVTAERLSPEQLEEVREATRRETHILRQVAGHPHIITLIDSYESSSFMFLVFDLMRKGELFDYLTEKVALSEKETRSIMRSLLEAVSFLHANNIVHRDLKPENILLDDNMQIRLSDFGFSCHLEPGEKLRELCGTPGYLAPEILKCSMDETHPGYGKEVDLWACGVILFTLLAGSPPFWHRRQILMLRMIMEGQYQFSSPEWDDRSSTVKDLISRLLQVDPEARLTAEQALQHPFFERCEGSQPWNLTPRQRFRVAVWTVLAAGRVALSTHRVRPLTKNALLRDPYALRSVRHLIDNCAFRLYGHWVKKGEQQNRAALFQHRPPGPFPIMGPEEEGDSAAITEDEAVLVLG
# In short: as §1
# [6] = target: T6, PIM1 (Homo sapiens, UniProt P11309)
# T6 construct: purchased Reaction Biology Corp
# In short: as §1
# [7] = target: T7, SIK1 (Homo sapiens, UniProt P57059)
# T7 construct: purchased Reaction Biology Corp
# In short: as §1
# [8] = read-out: % Enzyme Activity (relative to DMSO controls) AVG
# [9] = read-out: % Enzyme Activity (relative to DMSO controls) Data 1
# [10] = read-out: % Enzyme Activity (relative to DMSO controls) Data 2
# T7 sequence (P57059 whole entry): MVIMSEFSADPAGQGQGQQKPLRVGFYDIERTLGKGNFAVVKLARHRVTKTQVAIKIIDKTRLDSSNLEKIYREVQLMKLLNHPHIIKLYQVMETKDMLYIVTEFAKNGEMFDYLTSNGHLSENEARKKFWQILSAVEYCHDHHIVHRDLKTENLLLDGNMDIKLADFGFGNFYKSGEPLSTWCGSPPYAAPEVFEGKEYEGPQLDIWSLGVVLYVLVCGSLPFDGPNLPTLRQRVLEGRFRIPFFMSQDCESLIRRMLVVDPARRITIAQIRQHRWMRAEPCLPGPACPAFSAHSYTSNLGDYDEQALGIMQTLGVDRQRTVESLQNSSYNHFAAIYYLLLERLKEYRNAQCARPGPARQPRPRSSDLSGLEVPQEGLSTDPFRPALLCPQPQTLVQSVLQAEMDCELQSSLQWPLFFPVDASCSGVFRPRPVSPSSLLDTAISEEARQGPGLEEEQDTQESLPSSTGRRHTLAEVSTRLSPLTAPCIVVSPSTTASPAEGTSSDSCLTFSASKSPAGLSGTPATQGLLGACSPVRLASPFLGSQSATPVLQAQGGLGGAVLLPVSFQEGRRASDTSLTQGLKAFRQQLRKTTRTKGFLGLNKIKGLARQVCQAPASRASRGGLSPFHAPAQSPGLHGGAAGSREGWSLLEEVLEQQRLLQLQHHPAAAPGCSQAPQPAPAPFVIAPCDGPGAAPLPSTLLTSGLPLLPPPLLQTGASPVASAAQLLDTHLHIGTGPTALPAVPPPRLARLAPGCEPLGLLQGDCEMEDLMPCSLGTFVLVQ
# T2 sequence (P09769 whole entry): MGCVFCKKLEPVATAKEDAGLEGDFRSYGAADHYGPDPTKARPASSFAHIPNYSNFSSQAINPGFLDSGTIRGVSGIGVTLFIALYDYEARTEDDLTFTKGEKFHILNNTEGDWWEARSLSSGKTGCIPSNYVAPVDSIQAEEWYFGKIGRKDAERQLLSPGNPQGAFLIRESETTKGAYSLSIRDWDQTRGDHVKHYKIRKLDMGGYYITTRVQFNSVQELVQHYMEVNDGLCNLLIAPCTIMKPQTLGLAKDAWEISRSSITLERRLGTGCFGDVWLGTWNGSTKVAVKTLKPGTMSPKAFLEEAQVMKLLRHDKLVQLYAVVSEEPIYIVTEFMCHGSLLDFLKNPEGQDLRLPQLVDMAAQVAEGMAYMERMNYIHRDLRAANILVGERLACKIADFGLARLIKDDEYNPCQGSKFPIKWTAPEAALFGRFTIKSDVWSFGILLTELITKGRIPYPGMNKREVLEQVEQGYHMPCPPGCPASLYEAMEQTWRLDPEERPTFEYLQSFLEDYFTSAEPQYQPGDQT
# T4 sequence (P80192 whole entry): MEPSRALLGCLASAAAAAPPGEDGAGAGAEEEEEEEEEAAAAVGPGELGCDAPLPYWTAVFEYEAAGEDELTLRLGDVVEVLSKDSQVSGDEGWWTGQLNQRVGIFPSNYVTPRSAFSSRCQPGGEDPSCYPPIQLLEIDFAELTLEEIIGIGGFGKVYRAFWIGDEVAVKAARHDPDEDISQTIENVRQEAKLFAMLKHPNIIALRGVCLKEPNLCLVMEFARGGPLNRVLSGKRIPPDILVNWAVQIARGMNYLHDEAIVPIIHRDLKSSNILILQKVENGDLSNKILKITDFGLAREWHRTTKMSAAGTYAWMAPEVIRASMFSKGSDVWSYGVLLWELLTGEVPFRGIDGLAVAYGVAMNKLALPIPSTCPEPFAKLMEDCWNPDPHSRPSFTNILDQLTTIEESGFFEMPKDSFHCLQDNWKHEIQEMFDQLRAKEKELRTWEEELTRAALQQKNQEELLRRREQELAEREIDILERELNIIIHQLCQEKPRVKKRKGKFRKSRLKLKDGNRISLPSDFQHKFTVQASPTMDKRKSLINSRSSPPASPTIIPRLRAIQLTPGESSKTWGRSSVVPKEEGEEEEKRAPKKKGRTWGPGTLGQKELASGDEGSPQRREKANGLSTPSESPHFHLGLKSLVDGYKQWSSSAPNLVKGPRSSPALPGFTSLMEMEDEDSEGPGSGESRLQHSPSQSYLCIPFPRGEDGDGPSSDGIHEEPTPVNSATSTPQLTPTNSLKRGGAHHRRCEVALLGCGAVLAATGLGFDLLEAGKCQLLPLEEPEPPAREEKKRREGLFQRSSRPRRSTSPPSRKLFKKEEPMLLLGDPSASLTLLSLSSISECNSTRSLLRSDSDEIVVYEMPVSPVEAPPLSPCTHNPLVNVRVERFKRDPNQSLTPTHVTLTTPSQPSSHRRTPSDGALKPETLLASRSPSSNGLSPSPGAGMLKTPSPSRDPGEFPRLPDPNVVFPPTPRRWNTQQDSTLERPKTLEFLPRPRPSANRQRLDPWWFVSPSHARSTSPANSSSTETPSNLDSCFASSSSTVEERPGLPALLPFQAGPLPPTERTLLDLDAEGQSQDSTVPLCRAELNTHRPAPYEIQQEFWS
# T6 sequence (P11309 whole entry): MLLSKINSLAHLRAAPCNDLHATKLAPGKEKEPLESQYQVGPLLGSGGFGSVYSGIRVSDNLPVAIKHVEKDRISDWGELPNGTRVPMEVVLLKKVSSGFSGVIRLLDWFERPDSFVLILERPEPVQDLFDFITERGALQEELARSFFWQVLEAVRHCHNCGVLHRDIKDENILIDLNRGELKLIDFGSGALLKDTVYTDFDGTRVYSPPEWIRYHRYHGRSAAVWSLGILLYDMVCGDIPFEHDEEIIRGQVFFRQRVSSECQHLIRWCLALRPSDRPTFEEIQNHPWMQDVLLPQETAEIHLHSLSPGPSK
compound,measurement,setting,value
CC(C)(C)C(=O)N1N=CC[C@H]1c1ccccc1 [GSK′963],remaining activity at 10 µM,[1]; [8],96.6%
same,remaining activity at 10 µM,[1]; [9],97.5%
same,remaining activity at 10 µM,[1]; [10],95.7%
same,remaining activity at 10 µM,[2]; [8],107%
same,remaining activity at 10 µM,[2]; [9],106%
same,remaining activity at 10 µM,[2]; [10],108%
same,remaining activity at 10 µM,[3]; [8],119%
same,remaining activity at 10 µM,[3]; [9],122%
same,remaining activity at 10 µM,[3]; [10],115%
same,remaining activity at 10 µM,[4]; [8],110%
same,remaining activity at 10 µM,[4]; [9],108%
same,remaining activity at 10 µM,[4]; [10],112%
same,remaining activity at 10 µM,[5]; [8],110%
same,remaining activity at 10 µM,[5]; [9],111%
same,remaining activity at 10 µM,[5]; [10],110%
same,remaining activity at 10 µM,[6]; [8],109%
same,remaining activity at 10 µM,[6]; [9],113%
same,remaining activity at 10 µM,[6]; [10],106%
same,remaining activity at 10 µM,[7]; [8],113%
same,remaining activity at 10 µM,[7]; [9],113%
same,remaining activity at 10 µM,[7]; [10],113%
